The experiment deals with BDF1 mice, P388 leukemia (terephthalanilide-resistant), survival T/C. Briefly: NCI In Vivo Anticancer Drug Screen. Data for tumor model P388 Leukemia resistant to A Terephthalanilide; NSC 38280 (intraperitoneal) in B6D2F1 (BDF1) mice. As to conditions: endpoint: median survival time, higher = longer survival. The protocol:
The antitumor activity of compounds was measured in mice bearing transplantable tumors. Survival or tumor size were measured and the results are expressed as the measurement made in the treated group (T) divided by the measurement made in the vehicle treated control group (C). The tumor model used in this assay is P388 Leukemia resistant to A Terephthalanilide; NSC 38280 (intraperitoneal) in B6D2F1 (BDF1) mice

Setting [1] is: dose: 25.0 mg/kg/injection, schedule: Q01DX010 (ip), vehicle: saline.
The mark [2] stands for this setting: dose: 100.0 mg/kg/injection, schedule: Q01DX010 (ip), vehicle: saline.
[3] abbreviates: dose: 10.0 mg/kg/injection, schedule: Q01DX010 (ip), vehicle: saline.
Setting [4] is: dose: 167.0 mg/kg/injection, schedule: Q01DX010 (ip), vehicle: saline.
The mark [5] stands for this setting: dose: 250.0 mg/kg/injection, schedule: Q01DX010 (ip), vehicle: saline.
[6] abbreviates: dose: 20.0 mg/kg/injection, schedule: Q01DX010 (ip), vehicle: saline.
The mark [7] stands for this setting: dose: 40.0 mg/kg/injection, schedule: Q01DX010 (ip), vehicle: saline.
Setting [8] is: dose: 62.5 mg/kg/injection, schedule: Q01DX010 (ip), vehicle: saline.
Where [9] appears, read: dose: 125.0 mg/kg/injection, schedule: Q01DX010 (ip), vehicle: saline.
The mark [10] stands for this setting: dose: 5.0 mg/kg/injection, schedule: Q01DX010 (ip), vehicle: saline.
Where [11] appears, read: dose: 16.0 mg/kg/injection, schedule: Q01DX010 (ip), vehicle: saline.
Where [12] appears, read: dose: 3.13 mg/kg/injection, schedule: Q01DX010 (ip), vehicle: saline.
[13] abbreviates: dose: 500.0 mg/kg/injection, schedule: Q01DX010 (ip), vehicle: saline.

Several values for one entry are separate records, joined by “and”; a condition that tells them apart may be missing. Equal entries are not always repeated. Inconclusive results and toxic doses are left out.

As for `CN(Cc1cnc2nc(N)nc(N)c2n1)c1ccc(C(=O)N[C@@H](CCC(=O)O)C(=O)O)cc1`, the T/C is 122 % of control (dose: 0.19 mg/kg/injection, schedule: Q01DX010 (ip), vehicle: other); 172 % of control and 195 % of control (dose: 0.38 mg/kg/injection, schedule: Q01DX Z (ip), vehicle: saline); 194 % of control (dose: 0.75 mg/kg/injection, schedule: Q01DX010 (ip), vehicle: other); 272 % of control and 277 % of control (dose: 0.75 mg/kg/injection, schedule: Q01DX Z (ip), vehicle: saline); 216 % of control (dose: 1.5 mg/kg/injection, schedule: Q01DX010 (ip), vehicle: other); 213 % of control and 272 % of control (dose: 1.5 mg/kg/injection, schedule: Q01DX Z (ip), vehicle: saline). Further, the T/C runs as follows: (dose: 3.0 mg/kg/injection, schedule: Q01DX010 (ip), vehicle: other) 111 % of control; (dose: 3.0 mg/kg/injection, schedule: Q01DX Z (ip), vehicle: saline) 90 % of control and 95 % of control.

For `CSc1ncnc2nc[nH]c12`, the T/C was 104 % of control and 105 % of control under setting [1]; 100 % of control and 104 % of control (dose: 50.0 mg/kg/injection, schedule: Q01DX010 (ip), vehicle: saline); 100 % of control under setting [2]; 105 % of control and 109 % of control (dose: 200.0 mg/kg/injection, schedule: Q01DX010 (ip), vehicle: saline).

Regarding `CCN(CC)CCNc1ccc(C)c2sc3ccccc3c(=O)c12`, the T/C runs as follows: under setting [1], 105 % of control and 122 % of control; under setting [2], 100 % of control.

With `CC1CN=C(c2ccc(NC(=O)c3ccc(C(=O)Nc4ccc(C5=NCC(C)N5)cc4)cc3)cc2)N1` (configuration not stated), the T/C reads like this: under setting [3], 111 % of control; (dose: 15.0 mg/kg/injection, schedule: Q01DX010 (ip), vehicle: saline) 111 % of control; (dose: 22.0 mg/kg/injection, schedule: Q01DX010 (ip), vehicle: saline) 111 % of control; (dose: 33.0 mg/kg/injection, schedule: Q01DX010 (ip), vehicle: saline) 111 % of control.

On to `O[C@H](CN1CC1)[C@@H](O)CN1CC1`, for which the T/C by setting is: (dose: 62.5 micrograms/kg/injection, schedule: Q01DX010 (ip), vehicle: saline) 120 % of control; (dose: 125.0 micrograms/kg/injection, schedule: Q01DX010 (ip), vehicle: saline) 200 % of control; (dose: 250.0 micrograms/kg/injection, schedule: Q01DX010 (ip), vehicle: saline) 175 % of control; (dose: 500.0 micrograms/kg/injection, schedule: Q01DX010 (ip), vehicle: saline) 120 % of control.

As to `O=C(Nc1ccc(C2=NCCN2)cc1)c1cc(C(=O)Nc2ccc(C3=NCCN3)cc2)cc([N+](=O)[O-])c1`, the T/C is 94 % of control under setting [4]; 100 % of control under setting [5]; 94 % of control (dose: 375.0 mg/kg/injection, schedule: Q01DX010 (ip), vehicle: saline); 94 % of control (dose: 512.0 mg/kg/injection, schedule: Q01DX010 (ip), vehicle: saline).

For `S=c1nc[nH]c2nc[nH]c12`, the T/C runs as follows: (dose: 5.0 mg/kg/injection, schedule: Q01DX010 (ip), vehicle: alkali diluted with saline) 105 % of control; (dose: 5.0 mg/kg/injection, schedule: Q01DX Z (ip), vehicle: saline) 100 % of control; (dose: 10.0 mg/kg/injection, schedule: Q01DX010 (ip), vehicle: alkali diluted with saline) 88 % of control; (dose: 10.0 mg/kg/injection, schedule: Q01DX Z (ip), vehicle: saline) 100 % of control and 104 % of control; (dose: 20.0 mg/kg/injection, schedule: Q01DX010 (ip), vehicle: alkali diluted with saline) 100 % of control; (dose: 20.0 mg/kg/injection, schedule: Q01DX Z (ip), vehicle: saline) 100 % of control and 109 % of control. For the same compound, the T/C runs as follows: (dose: 40.0 mg/kg/injection, schedule: Q01DX010 (ip), vehicle: alkali diluted with saline) 94 % of control; (dose: 40.0 mg/kg/injection, schedule: Q01DX Z (ip), vehicle: saline) 122 % of control; (dose: 80.0 mg/kg/injection, schedule: Q01DX Z (ip), vehicle: saline) 154 % of control.

On to `CC1CCOS(=O)O1` (configuration not stated), for which the T/C by setting is: under setting [3], 100 % of control; under setting [6], 95 % of control; under setting [7], 100 % of control.

Take `CCCCNc1ncnc2c1cnn2C`: the T/C was 100 % of control (dose: 31.3 mg/kg/injection, schedule: Q01DX010 (ip), vehicle: saline); 95 % of control and 111 % of control under setting [8]; 88 % of control under setting [9].

As to `CN(N=O)C(N)=O`, the T/C is, setting by setting: under setting [10], 113 % of control; under setting [6], 118 % of control.

For the compound `CCCCn1cnc2c(=S)nc[nH]c21`, the T/C under setting [11] was 86 % of control and the T/C (dose: 32.0 mg/kg/injection, schedule: Q01DX010 (ip), vehicle: saline) was 90 % of control.

Take `CCCNC(=NC)c1ccc(NC(=O)c2ccc(C(=O)Nc3ccc(C(=NC)NCCC)cc3)cc2)cc1`: the T/C was 100 % of control (dose: 5.2 mg/kg/injection, schedule: Q01DX010 (ip), vehicle: saline); 100 % of control (dose: 8.0 mg/kg/injection, schedule: Q01DX010 (ip), vehicle: saline); 111 % of control (dose: 12.0 mg/kg/injection, schedule: Q01DX010 (ip), vehicle: saline); 111 % of control (dose: 18.0 mg/kg/injection, schedule: Q01DX010 (ip), vehicle: saline).

`O=C(Nc1ccc(C2=NCCN2)cc1)c1ccc(C(=O)Nc2ccc(C3=NCCN3)cc2)cc1`: the T/C is 116 % of control (dose: 75.0 mg/kg/injection, schedule: Q01DX010 (ip), vehicle: saline) and 122 % of control under setting [4].

With `[I][Hg][CH2]C1COC([CH2][Hg][I])CO1` (configuration not stated), the T/C is, setting by setting: (dose: 0.78 mg/kg/injection, schedule: Q01DX010 (ip), vehicle: saline) 91 % of control; (dose: 1.56 mg/kg/injection, schedule: Q01DX010 (ip), vehicle: saline) 95 % of control; under setting [12], 91 % of control.

For `C[C@]12C=CC(=O)C=C1CC[C@@H]1[C@@H]2[C@@H](O)C[C@@]2(C)[C@H]1CC[C@]2(O)C(=O)CO`, the T/C (dose: 12.5 mg/kg/injection, schedule: Q01DX010 (sc), vehicle: steriod suspending solution) is 112 % of control; the T/C (dose: 25.0 mg/kg/injection, schedule: Q01DX010 (sc), vehicle: steriod suspending solution) was 118 % of control; the T/C (dose: 50.0 mg/kg/injection, schedule: Q01DX010 (sc), vehicle: steriod suspending solution) is 106 % of control; the T/C (dose: 100.0 mg/kg/injection, schedule: Q01DX010 (sc), vehicle: steriod suspending solution) was 112 % of control.

For `C[C@H]1C(=O)O[C@@H]2CCN3CC=C(COC(=O)[C@](C)(O)[C@@]1(C)O)[C@H]23`, the T/C reads like this: under setting [12], 90 % of control and 100 % of control; (dose: 6.25 mg/kg/injection, schedule: Q01DX010 (ip), vehicle: saline) 95 % of control; (dose: 12.5 mg/kg/injection, schedule: Q01DX010 (ip), vehicle: saline) 95 % of control and 100 % of control; under setting [1], 105 % of control and 109 % of control.

In the case of `S=P(N1CC1)(N1CC1)N1CC1`, the T/C is, setting by setting: (dose: 0.75 mg/kg/injection, schedule: Q01DX010 (ip), vehicle: saline) 112 % of control; (dose: 6.0 mg/kg/injection, schedule: Q01DX010 (ip), vehicle: saline) 162 % of control.

As for `C[C@@H]1C[C@@H]([C@H](O)CC2CC(=O)NC(=O)C2)C(=O)[C@@H](C)C1`, the T/C is 93 % of control and 100 % of control under setting [10]; 100 % of control under setting [3]; 100 % of control under setting [6]; 112 % of control under setting [7].

For the compound `c1ccc(CCSc2ncnc3nc[nH]c23)cc1`, the T/C is 90 % of control under setting [8], 90 % of control under setting [9], 100 % of control under setting [5] and 100 % of control under setting [13].

In the case of `O=CCC(O)C(O)C(O)CO` (configuration not stated), the T/C by setting is: under setting [8], 110 % of control and 111 % of control; under setting [9], 100 % of control and 110 % of control; under setting [5], 110 % of control and 111 % of control; under setting [13], 115 % of control and 122 % of control.

`Nc1cc(C(=O)Nc2ccc(C3=NCCN3)cc2)cc(C(=O)Nc2ccc(C3=NCCN3)cc2)c1`: the T/C runs as follows: under setting [11], 111 % of control; (dose: 64.0 mg/kg/injection, schedule: Q01DX010 (ip), vehicle: saline) 183 % of control.

As to `O=c1cn[nH]c(=O)[nH]1`, the T/C under setting [8] was 105 % of control; the T/C under setting [9] was 111 % of control; the T/C under setting [5] was 90 % of control and 105 % of control; the T/C under setting [13] is 88 % of control.

The values above are taken from PubChem BioAssay AID338 (DTP/NCI, 2004).
